Measured values as given in patent publication US10711007B2, “Selective inhibitors of protein arginine methyltransferase 5 (PRMT5)” (Prelude Therapeutics, Incorporated, priority 2018, dated 2020).
Counter-ions that a name gives are not always drawn.

The compounds below were run against PRMT5/MEP50 complex (Homo sapiens (Human), UniProt O14744) (assay: Biochemical assay: PRMT5/MEP50 methylation of histone H4 based AcH4-23, SPA readout). Conditions: PRMT5/MEP50 2.5 nM, 300 nM AcH4-23, 1 μM 3H-SAM.
Procedure: Biochemical Assay Protocol
Compounds were solubilized and 3-fold diluted in 100% DMSO. […] Standard reactions were performed in a total volume of 30 μl in assay buffer, with 300 nM histone H4 based AcH4-23 (Anaspec: AS-65002) as substrate. To this was added the PRMT5/MEP50 complex diluted to provide a final assay concentration of 2.5 nM and the compounds were allowed to preincubate for 20 minutes at 37° C. The reaction was initiated by adding S-[3H-methyl]-adenosyl-L-methionine (PerkinElmer: NET155001MC) to final concentration of 1 μM. Following a 30 minutes incubation at 37° C., the reaction was stopped by adding 25 μL of 8M Guanidine HCl. Prepare streptavidin YSI SPA beads (Perkinelmer: RPNQ0012) at 0.3 mg/mL in assay buffer. To each reaction, add 150 μL of SPA beads suspension, and incubated while shaking at room temperature for 30 minutes. The plate was centrifuged at 100×g for 30 second before reading in a scintillation counter. IC50 values were determined by fitting the data to the standard 4 parameters with Hill Slope using GraphPad Prism software.

Chain of PRMT5/MEP50 complex (O14744 whole entry): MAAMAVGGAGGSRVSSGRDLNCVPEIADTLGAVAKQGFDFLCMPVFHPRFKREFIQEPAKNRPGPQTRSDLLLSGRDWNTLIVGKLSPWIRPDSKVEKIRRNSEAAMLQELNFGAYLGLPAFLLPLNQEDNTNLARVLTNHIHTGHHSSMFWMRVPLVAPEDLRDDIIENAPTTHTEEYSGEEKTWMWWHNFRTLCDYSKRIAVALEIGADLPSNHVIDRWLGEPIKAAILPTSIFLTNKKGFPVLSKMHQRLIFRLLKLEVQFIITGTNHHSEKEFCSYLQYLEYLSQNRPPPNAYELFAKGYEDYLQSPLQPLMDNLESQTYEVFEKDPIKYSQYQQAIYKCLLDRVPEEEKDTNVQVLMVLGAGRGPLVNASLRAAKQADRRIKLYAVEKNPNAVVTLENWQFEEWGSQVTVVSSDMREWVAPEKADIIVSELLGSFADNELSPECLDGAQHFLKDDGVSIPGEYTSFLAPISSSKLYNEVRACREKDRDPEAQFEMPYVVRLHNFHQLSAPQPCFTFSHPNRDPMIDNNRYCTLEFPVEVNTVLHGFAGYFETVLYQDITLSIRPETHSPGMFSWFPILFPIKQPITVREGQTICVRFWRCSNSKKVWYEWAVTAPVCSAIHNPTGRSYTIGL
Chain of PRMT5/MEP50 complex (Q9BQA1 whole entry partner): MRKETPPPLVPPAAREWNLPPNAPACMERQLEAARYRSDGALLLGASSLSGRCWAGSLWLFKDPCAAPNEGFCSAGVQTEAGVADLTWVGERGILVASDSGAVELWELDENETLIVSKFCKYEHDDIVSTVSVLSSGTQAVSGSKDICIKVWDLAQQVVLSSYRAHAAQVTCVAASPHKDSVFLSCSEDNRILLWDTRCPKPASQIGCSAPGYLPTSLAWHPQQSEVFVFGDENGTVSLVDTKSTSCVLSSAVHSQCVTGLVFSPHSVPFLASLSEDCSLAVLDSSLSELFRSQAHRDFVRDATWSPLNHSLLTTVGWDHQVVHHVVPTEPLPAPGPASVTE

Structure (SMILES)	IC50 [nM]
Nc1ncnc2c1ccn2[C@@H]1C[C@H]([C@H]2OCc3cc(Cl)ccc32)[C@@H](O)[C@H]1O [Example 2A, (1R,2S,3R,5S)-3-(4-amino-7H-pyrrolo[2,3-d]pyrimidin-7-yl)-5-((R)-5-chloro-1,3-dihydroisobenzofuran-1-yl)cyclopentane-1,2-diol]	680
Cc1ncnc2c1ccn2[C@@H]1O[C@H]([C@H]2OCCc3cc(Cl)ccc32)[C@@H](O)[C@H]1O [Example 80, (2S,3S,4R,5R)-2-((S)-6-chloroisochroman-1-yl)-5-(4-methyl-7H-pyrrolo[2,3-d]pyrimidin-7-yl)tetrahydrofuran-3,4-diol]	1010
Nc1ncnc2c1ccn2[C@@H]1O[C@H]([C@H]2OCCc3cc(Cl)sc32)[C@@H](O)[C@H]1O [Example 91, (2R,3R,4S,5S)-2-(4-amino-7H-pyrrolo[2,3-d]pyrimidin-7-yl)-5-((R)-2-chloro-4,7-dihydro-5H-thieno[2,3-c]pyran-7-yl)tetrahydrofuran-3,4-diol]	554
Nc1ncnc2c1ccn2[C@@H]1O[C@H]([C@@H]2OC(=O)Cc3cc(Cl)ccc32)[C@@H](O)[C@H]1O [Example 82, (R)-1-((2S,3S,4R,5R)-5-(4-amino-7H-pyrrolo[2,3-d]pyrimidin-7-yl)-3,4-dihydroxytetrahydrofuran-2-yl)-6-chloroisochroman-3-one]	585
Nc1ncnc2c1ccn2[C@@H]1O[C@H]([C@@H]2OCCCc3cc(Cl)ccc32)[C@@H](O)[C@H]1O [Example 102, (2R,3R,4S,5S)-2-(4-amino-6H-7I4-pyrrolo[2,3-d]pyrimidin-7-yl)-5-((R)-7-chloro-1,3,4,5-tetrahydrobenzo[c]oxepin-1-yl)tetrahydrofuran-3,4-diol, hydrochloride]	6280
Cc1ncnc2c1ccn2[C@@H]1O[C@H]([C@@H]2OCCCc3cc(Cl)ccc32)[C@@H](O)[C@H]1O [Example 101, (2S,3S,4R,5R)-2-((R)-7-chloro-1,3,4,5-tetrahydrobenzo[c]oxepin-1-yl)-5-(4-methyl-7H-pyrrolo[2,3-d]pyrimidin-7-yl)tetrahydrofuran-3,4-diol]	1580
Nc1ncnc2c1ccn2[C@@H]1O[C@H]([C@@H]2OCOCc3cc(Cl)ccc32)[C@@H](O)[C@H]1O [Example 81, (2R,3R,4S,5S)-2-(4-amino-7H-pyrrolo[2,3-d]pyrimidin-7-yl)-5-((R)-7-chloro-1,5-dihydrobenzo[e][1,3]dioxepin-1-yl)tetrahydrofuran-3,4-diol]	41.5
Nc1ncnc2c1ccn2[C@@H]1C[C@H]([C@H]2OC(=O)c3cc(Cl)ccc32)[C@@H](O)[C@H]1O [Example 3B, (R)-3-((1S,2R,3S,4R)-4-(4-amino-6H-7I4-pyrrolo[2,3-d]pyrimidin-7-yl)-2,3-dihydroxycyclopentyl)-6-chloroisobenzofuran-1(3H)-one, hydrochloride]	1020
COC1Cc2cc(Cl)ccc2[C@H]([C@H]2O[C@@H](n3ccc4c(C)ncnc43)[C@H](O)[C@@H]2O)O1 (stereo partly drawn) [Example 44, (2S,3S,4R,5R)-2-((1R)-6-chloro-3-methoxyisochroman-1-yl)-5-(4-methyl-7H-pyrrolo[2,3-d]pyrimidin-7-yl)tetrahydrofuran-3,4-diol]	606
COC1Cc2cc(Cl)ccc2[C@H]([C@H]2O[C@@H](n3ccc4c(N)ncnc43)[C@H](O)[C@@H]2O)O1 (stereo partly drawn) [Example 42, (2R,3R,4S,5S)-2-(4-amino-7H-pyrrolo[2,3-d]pyrimidin-7-yl)-5-((1R)-6-chloro-3-methoxyisochroman-1-yl)tetrahydrofuran-3,4-diol]	428

The remaining lines, values ahead:

IC50 [nM]	Structure (SMILES)
14	Nc1ncnc2c1ccn2[C@@H]1O[C@H]([C@@H]2OC[C@@H](F)c3cc(Cl)ccc32)[C@@H](O)[C@H]1O [Example 93, (2R,3R,4S,5S)-2-(4-aminopyrrolo[2,3-d]pyrimidin-7-yl)-5-[(1R,4S)-6-chloro-4-fluoro-isochroman-1-yl]tetrahydrofuran-3,4-diol]
39.6	Cc1cc2c(cc1Cl)CCO[C@H]2[C@H]1O[C@@H](n2ccc3c(C)ncnc32)[C@H](O)[C@@H]1O [Example 99, (2S,3S,4R,5R)-2-((R)-6-chloro-7-methylisochroman-1-yl)-5-(4-methyl-7H-pyrrolo[2,3-d]pyrimidin-7-yl)tetrahydrofuran-3,4-diol]
6.7	Nc1ncnc2c1ccn2[C@@H]1O[C@H]([C@@H]2OCC(F)(F)c3ccccc32)[C@@H](O)[C@H]1O [Example 78, (2R,3R,4S,5S)-2-(4-amino-7H-pyrrolo[2,3-d]pyrimidin-7-yl)-5-((R)-4,4-difluoroisochroman-1-yl)tetrahydrofuran-3,4-diol]
8.4	Cc1ncnc2c1ccn2[C@@H]1O[C@H]([C@@H]2OCCc3c2ccc(F)c3F)[C@@H](O)[C@H]1O [Example 79, (2S,3S,4R,5R)-2-((R)-5,6-difluoroisochroman-1-yl)-5-(4-methyl-7H-pyrrolo[2,3-d]pyrimidin-7-yl)tetrahydrofuran-3,4-diol]
5.6	Cc1cc2c(cc1Cl)CCO[C@H]2[C@H]1O[C@@H](n2ccc3c(N)ncnc32)[C@H](O)[C@@H]1O [Example 100, (2R,3R,4S,5S)-2-(4-amino-7H-pyrrolo[2,3-d]pyrimidin-7-yl)-5-((R)-6-chloro-7-methylisochroman-1-yl)tetrahydrofuran-3,4-diol]
81	Cc1ncnc2c1ccn2[C@@H]1O[C@H]([C@@H]2OCC(F)(F)c3ccccc32)[C@@H](O)[C@H]1O [Example 76, (2S,3S,4R,5R)-2-((R)-4,4-difluoroisochroman-1-yl)-5-(4-methyl-7H-pyrrolo[2,3-d]pyrimidin-7-yl)tetrahydrofuran-3,4-diol]
59	Cc1ncnc2c1ccn2[C@@H]1O[C@H]([C@@H]2OC(O)Cc3cc(Cl)ccc32)[C@@H](O)[C@H]1O (stereo partly drawn) [Example 50, (2S,3S,4R,5R)-2-((1R)-6-chloro-3-hydroxyisochroman-1-yl)-5-(4-methyl-7H-pyrrolo[2,3-d]pyrimidin-7-yl)tetrahydrofuran-3,4-diol]
3.2	Cc1ncnc2c1ccn2[C@@H]1O[C@H]([C@@H]2OC[C@H](F)c3cc(Cl)ccc32)[C@@H](O)[C@H]1O [Example 94, (2R,3R,4S,5S)-2-(4-methylpyrrolo[2,3-d]pyrimidin-7-yl)-5-[(1R,4R)-6-chloro-4-fluoro-isochroman-1-yl]tetrahydrofuran-3,4-diol]
2.82	Nc1ncnc2c1ccn2[C@@H]1O[C@H]([C@@H]2OCCc3c2ccc(F)c3F)[C@@H](O)[C@H]1O [Example 77, (2R,3R,4S,5S)-2-(4-amino-7H-pyrrolo[2,3-d]pyrimidin-7-yl)-5-((R)-5,6-difluoroisochroman-1-yl)tetrahydrofuran-3,4-diol]
19	Nc1ncnc2c1ccn2[C@@H]1O[C@H]([C@@H]2OC(O)Cc3cc(Cl)ccc32)[C@@H](O)[C@H]1O (stereo partly drawn) [Example 43, (2R,3R,4S,5S)-2-(4-amino-7H-pyrrolo[2,3-d]pyrimidin-7-yl)-5-((1R)-6-chloro-3-hydroxyisochroman-1-yl)tetrahydrofuran-3,4-diol]
20	Cc1ncnc2c1ccn2[C@@H]1O[C@H]([C@@H]2OC[C@@H](F)c3cc(Cl)ccc32)[C@@H](O)[C@H]1O [Example 92, (2S,3S,4R,5R)-2-((1R,4S)-6-chloro-4-fluoroisochroman-1-yl)-5-(4-methyl-7H-pyrrolo[2,3-d]pyrimidin-7-yl)tetrahydrofuran-3,4-diol]
270	Nc1ncnc2c1ccn2[C@@H]1O[C@H]([C@H]2OCc3cc(Cl)ccc32)[C@@H](O)[C@H]1O [Example 1B, (2R,3R,4S,5S)-2-(4-amino-7H-pyrrolo[2,3-d]pyrimidin-7-yl)-5-((S)-5-chloro-1,3-dihydroisobenzofuran-1-yl)tetrahydrofuran-3,4-diol]
1	Cc1ncnc2c1ccn2[C@@H]1O[C@H]([C@@H]2OCc3ccc(Cl)cc32)[C@@H](O)[C@H]1O [Example 15, (2S,3S,4R,5R)-2-((R)-6-chloro-1,3-dihydroisobenzofuran-1-yl)-5-(4-methyl-7H-pyrrolo[2,3-d]pyrimidin-7-yl)tetrahydrofuran-3,4-diol]
